The target in experiment [1] is T1, gPAPP (Mus musculus, UniProt Q80V26).
T1 construct: N-terminal His-tagged recombinant protein containing amino acids from E51 to K356; His tag (N); host or cells: CHO cells
T1 sequence (Q80V26 51-356): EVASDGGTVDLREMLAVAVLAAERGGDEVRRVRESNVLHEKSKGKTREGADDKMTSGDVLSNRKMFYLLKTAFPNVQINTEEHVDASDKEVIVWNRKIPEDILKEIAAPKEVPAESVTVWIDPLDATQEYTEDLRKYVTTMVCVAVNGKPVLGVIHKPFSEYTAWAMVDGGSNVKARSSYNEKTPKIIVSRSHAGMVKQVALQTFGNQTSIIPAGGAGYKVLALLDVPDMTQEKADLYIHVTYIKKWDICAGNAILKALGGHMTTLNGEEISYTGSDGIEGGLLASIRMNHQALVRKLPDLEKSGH
Briefly: Specificity of gPAPP on 3′-AMP, 5′-AMP, PAP and PAPS (phosphate release). The experiment is classed as biochemical. To be noted: for activity of gPAPP alone on the nucleotide: 1 μg gPAPP; for activity of gPAPP alone on the nucleotide / phosphate released by gPAPP versus amount of gPAPP: 10 mM Mg2+; for phosphate released by gPAPP versus amount of gPAPP: 50 nmol PAP or PAPS, pH 7.5, 20 minutes. How it is done:
(§1) In the following examples, the gPAPP used was recombinant mouse gPAPP expressed in CHO cells as an N-terminal His-tagged recombinant protein containing amino acids from E51 to K356, created by R & D Systems. The sequence was based on accession number NP 808398 from the National Center for Biotechnology Information. The chondroitin sulfate (CS) and p-nitrophenol (pNP) were obtained from Sigma Aldrich. The PAPS was prepared by R & D Systems using recombinant S. cerevisiae ATP sulurylase and P. chrysogenum APS kinase. The APS kinase was also prepared by R & D Systems. Recombinant human SULT1A1, CHST3, CD73, TNAP and Malachite Green Phosphate Detection Kit were from R & D Systems. Protein concentrations were quantified using the Bradford assay as described by Bradford, M. M., A rapid and sensitive method for the quantitation of microgram quantities of protein utilizing the principle of protein-dye binding. Anal Biochem. 1976. Vol 72, Page 248-254, the relevant portions of which are hereby incorporated by reference. Phosphate levels were determined using the Malachite Green Phosphate Detection Kit available from R & D Systems, according to the package instructions. All examples were performed in a buffer of 25 mM Tris at pH 7.5.
The specificity of gPAPP was first tested on 3′-AMP, 5′-AMP and PAP in the absence or presence of CD73 by combining 10 nmol of either 3′-AMP, 5′-AMP or PAP with 1 μg gPAPP and/or 0.1 μg CD73 in 50 μL assay buffer containing 10 mM Mg^2 at pH 7.5. In a parallel experiment, the same amount of nucleotide was combined with tissue-non-specific alkaline phosphatase (TNAP) at pH 9.0. The ratio between the phosphate released by gPAPP and/or CD73 (Pi) and the phosphate released by TNAP (PiTNAP) was plotted versus the nucleotide and phosphatases in FIG. 5. […] When gPAPP and CD73 were used together, they released twice as much phosphate from PAP than gPAPP alone.
The specificity of gPAPP was tested on PAP and PAPS. In this example, 50 nmol of either PAP or PAPS was treated with different amounts of gPAPP in 50 μL assay buffer containing 10 mM Mg^2 at pH 7.5 for 20 minutes. The released phosphate was plotted versus the amount of gPAPP.

A further experiment deals with sulfotransferases. To be noted: reported; cited from earlier work.
Experiment [2] addresses T1, gPAPP. Briefly: Inhibition of gPAPP hydrolysis of PAP by PAPS. The experiment is classed as biochemical. To be noted: 0.5 mM PAPS, amount of PAP greater than the coupling capacity. How it is done: as §1, with “Vol 72, Page 248-254, the relevant portions of which are hereby incorporated by reference.” left out, “All examples were performed in a buffer of 25 mM Tris at pH 7.5.” left out
In this example, the coupling capacity of gPAPP was determined. […] The coupling capacity of gPAPP was determined by combining 1 μg gPAPP with increasing amounts of PAP, in the presence or absence of 0.5 mM PAPS in 50 μL assay buffer containing 10 mM Mg^2+ at pH 7.5 for either 20 or 40 minutes. […]

For a further experiment, the target named is T2, CHST3 (Homo sapiens, UniProt Q7LGC8).
T2 construct: purchased R & D Systems
T2 sequence (Q7LGC8 1-479): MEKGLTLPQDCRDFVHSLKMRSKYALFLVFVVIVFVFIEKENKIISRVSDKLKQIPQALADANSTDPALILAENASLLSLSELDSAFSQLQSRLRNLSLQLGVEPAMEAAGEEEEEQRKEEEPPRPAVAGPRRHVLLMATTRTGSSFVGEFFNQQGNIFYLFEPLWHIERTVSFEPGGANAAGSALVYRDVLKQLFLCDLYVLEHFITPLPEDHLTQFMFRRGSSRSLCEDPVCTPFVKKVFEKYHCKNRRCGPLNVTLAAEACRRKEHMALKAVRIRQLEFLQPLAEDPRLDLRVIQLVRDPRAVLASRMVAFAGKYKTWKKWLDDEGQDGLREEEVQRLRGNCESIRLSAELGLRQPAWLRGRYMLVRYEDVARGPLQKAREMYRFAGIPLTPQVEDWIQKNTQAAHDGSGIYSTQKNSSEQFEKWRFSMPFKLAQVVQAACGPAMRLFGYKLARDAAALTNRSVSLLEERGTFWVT
The experiment in a line: CHST3 substrate curves for CS and PAPS, gPAPP-coupled assay. The experiment is classed as biochemical. How it is done: as §1
Carbohydrate sulfotransferase 3 (CHST3) is a sulfotransferase which is known to catalyze the sulfation of N-acetylgalactosamine at the 6-O position. In a first series of reactions, 1 μg CHST3 was combined with 1 μg gPAPP and increasing concentrations of CS in 50 μl assay buffer containing 0.8 mM PAPS, 10 mM MgCl2 at pH 7.5. In a second series of reactions, 0.4 μg CHST3 was combined with 1 μg gPAPP and increasing concentrations of PAPS in 50 μL assay buffer containing […], 10 mg/ml CS, 10 mM MgCl2 at pH 7.5.
An enzyme dose curve was then created for CHST3 at the optimal concentrations for both the donor and acceptor substrates in FIG. 11. To create the dose curve, 1 μg gPAPP was combined with increasing amounts of CHST3 in the presence of 10 mg/ml of CS and 0.5 mM of PAPS in 50 μl assay buffer containing 10 mM MgCl2 at pH 7.5.

Experiment [3] has as its target T3, SULT1A1 (Homo sapiens, UniProt P50225). Briefly: SULT1A1 velocity versus pNP concentration, gPAPP/CD73-coupled assay. The experiment is classed as biochemical. Also noted: purchased R & D Systems. To be noted: 0.1 μg SULT1A1, 0.25 mM PAPS, gPAPP and CD73. How it is done: as §1, with “Anal Biochem. 1976. Vol 72, Page 248-254, the relevant portions of which are hereby incorporated by reference.” left out, “All examples were performed in a buffer of 25 mM Tris at pH 7.5.” left out
A series of reactions were performed by combining increasing concentrations of pNP with 0.1 μg SULT1A1, 2 μg PAPP and 0.1 μg CD73 in 200 μL of an assay buffer containing 0.25 mM PAPS, 10 mM MgCl2 at pH 7.5. […] These values are consistent with reported values for SULT1A1 determined using radioisotope assays in the literature.

Experiment [4] has as its target T3, SULT1A1. To be noted: read-out: half maximal velocity (Km); reported; cited from earlier work.

The source of these data is patent US8815529B2, “Sulfotransferase assay” (Research & Diagnostics Systems, Inc., priority 2011, dated 2014).

T3 sequence (P50225 whole entry): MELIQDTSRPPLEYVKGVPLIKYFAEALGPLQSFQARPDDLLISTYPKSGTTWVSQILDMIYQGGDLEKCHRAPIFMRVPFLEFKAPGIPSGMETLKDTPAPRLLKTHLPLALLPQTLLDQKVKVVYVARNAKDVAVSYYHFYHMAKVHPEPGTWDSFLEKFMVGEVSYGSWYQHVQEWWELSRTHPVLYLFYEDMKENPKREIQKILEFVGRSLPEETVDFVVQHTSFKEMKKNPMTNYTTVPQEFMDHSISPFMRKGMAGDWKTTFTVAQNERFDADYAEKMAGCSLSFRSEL

For `Nc1ncnc2c1ncn2[C@@H]1O[C@H](CO)[C@@H](OP(=O)(O)O)[C@H]1O` [3′-AMP], the “activity of gPAPP alone on the nucleotide” value (shortened to “activity of gPAPP alone”) at gPAPP [1] (10 nmol nucleotide, pH 7.5) is “not”.

For `Nc1ncnc2c1ncn2[C@@H]1O[C@H](COP(=O)(O)O)[C@@H](O)[C@H]1O` [5′-AMP, 5-adenosine monophosphate], the “activity of gPAPP alone” value on gPAPP [1] (10 nmol nucleotide, pH 7.5) is on record as “not”.

On to `Nc1ncnc2c1ncn2[C@@H]1O[C@H](COP(=O)(O)O)[C@@H](OP(=O)(O)O)[C@H]1O` [PAP, 3′-phosphoadenosine-5′-phosphate], for which the inhibition of sulfotransferases entry in the experiment on sulfotransferases is “potent inhibitor”. Also, the “phosphate released by gPAPP and CD73 together compared with gPAPP alone” value at gPAPP [1] (10 nmol nucleotide, 1 μg gPAPP and 0.1 μg CD73, 10 mM Mg2+, pH 7.5) is reported as “twice as much”. The “activity of gPAPP alone” value at gPAPP [1] (10 nmol nucleotide, pH 7.5) was “showed activity”. In addition, the “phosphate released by gPAPP versus amount of gPAPP” value on gPAPP [1] is listed as “increased with the amount of the enzyme”.

Turning to `Nc1ncnc2c1ncn2[C@@H]1O[C@H](COP(=O)(O)OS(=O)(=O)O)[C@@H](OP(=O)(O)O)[C@H]1O` [PAPS, 3′-phosphoadenosine-5′-phosphosulfate], at gPAPP [1], the “phosphate released by gPAPP versus amount of gPAPP” value was “showed no change”. Further, the “inhibition of the hydrolysis of PAP” value against gPAPP [2] is on record as roughly 20%. The “level above which substrate inhibition occurred” value at CHST3 (0.4 μg CHST3, 10 mg/ml CS) was “above 0.5 mM”. Further, the Km at CHST3 (0.4 μg CHST3, 10 mg/ml CS, read-out: concentration for half-maximal velocity (Km for PAPS)) is less than 100 µM. The “optimal concentration (visually determined)” value on CHST3 (highest point of the curve of FIG. 10B) is “about 0.5 mM”.

With `O=[N+]([O-])c1ccc(O)cc1` [pNP, p-nitrophenol], the “concentration above which substrate inhibition was present” value on SULT1A1 [3] was “above 4 mM”. In addition, the “concentration for half maximum velocity” value at SULT1A1 [3] (projected) was less than 1.0 µM. Also, on SULT1A1 [4], the Km is less than 1 µM.

On to chondroitin sulfate [CS], for which, at CHST3 (1 μg CHST3, 0.8 mM PAPS), the “concentration for half-maximal velocity (Km for CS)” value is recorded as “about 2 mg/ml” and the substrate inhibition entry is given as “no substrate inhibition”. Besides, the “optimal concentration (visually determined)” value on CHST3 (highest point of the curve of FIG. 10A) was greater than 5 mg/mL.
